Measured values: US8431603B2, “3-phenylpyrazolo[5,1-b]thiazole compounds” (Eisai R&D Management Co., Ltd., priority 2008, dated 2013)

Tests used:
human CRFR1 = target: T1, human CRFR1 (Homo sapiens, UniProt P34998); test: CRFR1 binding test (SPA competition with 125I-CRF, membrane fraction of CRFR1-expressing HEK293 cells); conditions: 100 pM 125I-CRF, room temperature, read-out: CRF1 receptor binding capacity IC50
T1 construct: The full-length CRFR1 gene was obtained by PCR using human brain cDNA library; expressed in transfected cells; pcDNA3.1 expression vector; membrane fraction used
T1 sequence (P34998 24-415): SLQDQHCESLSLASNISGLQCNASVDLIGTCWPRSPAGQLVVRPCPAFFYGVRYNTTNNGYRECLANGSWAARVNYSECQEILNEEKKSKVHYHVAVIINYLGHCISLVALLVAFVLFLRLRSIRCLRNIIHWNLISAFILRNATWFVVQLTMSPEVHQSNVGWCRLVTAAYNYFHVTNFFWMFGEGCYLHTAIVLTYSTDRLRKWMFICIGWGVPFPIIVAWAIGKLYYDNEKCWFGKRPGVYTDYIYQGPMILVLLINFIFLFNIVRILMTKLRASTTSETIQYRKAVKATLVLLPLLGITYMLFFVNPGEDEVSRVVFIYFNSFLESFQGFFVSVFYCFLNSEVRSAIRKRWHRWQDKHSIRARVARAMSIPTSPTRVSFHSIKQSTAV
Experimental: The binding capacities of the compounds of the invention for CRF1 receptor (CRFR1) were evaluated.
The membrane fraction of human CRFR1 high-expressing cells was used as the material for a CRFR1 binding experiment. The CRFR1-expressing cells were prepared in the following manner. The full-length CRFR1 gene was obtained by PCR using human brain cDNA library (QuickClone™ Clontech). The obtained DNA fragment was inserted into a cloning vector and the nucleotide sequence was confirmed. cDNA having the proper nucleotide sequence was linked to an expression vector (pcDNA3.1™, Invitrogen). The CRFR1 expression vector was introduced into HEK293 cell, and the resistant cells which proliferated in culture medium containing G418 (1 mg/ml) were cloned by the limiting dilution method. Out of the cloned cells, cells having high binding affinity between the membrane fraction per unit of protein and sauvagine were selected according to the following binding experiment. And the selected cells were used for the experiments.
The cloned cells obtained in (1) were collected and suspended in ice-cooled membrane buffer (50 mM Tris-HCl, 5 mM MgCl2, 2 mM EGTA, 1 mM DTT, protease inhibitor cocktail (COMPLETE™, Roche Diagnostics) pH 7.3), and then the cells were disrupted with a Polytron ([…]) while cooling on ice (level 5, 10 seconds, 2-5 times, ice-cooling) and then centrifuged (2,000 rpm, 5 minutes, 4° C.), after which the supernatant was collected. Membrane buffer was added to the precipitate, and the mixture was subjected to Polytron treatment (same conditions as above) and centrifuged (same conditions as above), and the obtained supernatant was collected and combined with the previous supernatant. This was centrifuged (13,000 rpm (18,000×g), 30 minutes, 4° C.) to prepare cell membranes. The precipitated cell membranes were suspended in membrane buffer and disrupted with a Polytron (level 5, 10 seconds, 3-5 times, ice-cooling) to prepare a dispersed suspension. The protein assay was performed.
The following method (1) or (2) was performed for use as the cell membrane fraction.
(1) The above dispersed suspension was diluted with membrane buffer containing 0.1% BSA to a protein concentration of 200 μg/ml, for use as the cell membrane fraction
(2) The above dispersed suspension was frozen for preservation, and if needed, thawed, re-dispersed and diluted for used as the cell membrane fraction.
A binding competition experiment with CRF was conducted by the SPA (GE Healthcare) method using a 96-well plate. A mixture of 5 μg of the cell membrane fraction protein, 1 mg of SPA beads and 100 pM ^125I-CRF (Perkin Elmer) was allowed to stand at room temperature for at least 2 hours in the presence of a test compound, and the radioactivity of each well after centrifugation (1,200 rpm (260×g), 5 minutes, room temperature) was measured with a TopCount (registered trademark; Perkin Elmer).
The radioactivity with addition of a 4,000-fold excess of non-radioactive sauvagine as the nonspecific binding was subtracted from each value, and the resulting value was expressed as a percentage (% of control), with 100% as the radioactivity without addition of the test compound (control). The IC50 value was calculated from a binding inhibition curve drawn with test compound concentration on the horizontal axis and % (% of control) on the vertical axis.

Balb/c mice = test: Light/dark box test in mice (anxiolytic effect); format: in vivo; conditions: for anxiolytic effect in the light/dark box test: 30 mg/kg, oral administration; for minimal effective dose: Mus musculus, 1 h, minimum dose significantly prolonging time spent in the light box vs vehicle, oral, one hour prior to test
Experimental: The light/dark box test in mice was carried out according to a modified method of Belzung C., Misslin R., Vogel E. et al. (Reference; Behavioural effects of the benzodiazepine receptor partial agonist RO16-6028 in mice, Psychopharmacology, 97, 388-391, 1989). The test apparatus used was a light/dark box comprising a covered black acrylic box (dark box; 15×10×20 cm), an uncovered white acrylic box (light box; 15×20×20 cm) and a black acrylic tunnel (10×7×4.5 cm) which connects dark box and light box and enables a mouse to freely move back and forth between the dark box and light box. In this test apparatus, however, a transparent acrylic polymer was used for the front side (20×20 cm) and back side (20×20 cm) of the light box to allow observation of the behavior. After setting illumination so that the light intensity of the floor of the light box was 150 Lux, 5-week-old male Balb/c mice (purchased from Nihon Charles River) were introduced into the dark box at the beginning of the test. For the test, the tested compound was suspended in 5% dimethylsulfoxide, 5% Cremopor EL and 90% physiological saline and orally administered to the test animals one hour prior to the start of the test.
The time spent in the light box was measured as an index of the anxiolytic effect, with “spend in the light box” defined as the state in which all limbs of the mice were on the floor of the light box. […] The statistical significance between the vehicle-treated group and the test compound-treated groups was analyzed by one way analysis of variance followed by Dunnett multiple comparison when multiple doses were set for the same test, and by the Mann-Whitney U test when only one dose was set.

[1] = in vivo; cited from earlier work
[2] = in vivo; cited from earlier work; remark: listed apart in the source
ethanol withdrawal rats = conditions: cited from earlier work
[3] = in vivo; cited from earlier work; remark: listed apart in the source
IBS patients = conditions: cited from earlier work
rats [4] = conditions: cited from earlier work
[5] = in vivo; cited from earlier work; remark: listed apart in the source
[6] = in vivo; cited from earlier work; remark: listed apart in the source
rats [7] = conditions: cited from earlier work; remark: listed apart in the source
rats [8] = conditions: cited from earlier work; remark: listed apart in the source
[9] = pretreatment; cited from earlier work
high-anxiety rats = conditions: particularly in high-anxiety rats; cited from earlier work
[10] = in vivo; cited from earlier work; remark: listed apart in the source
rats [11] = conditions: cited from earlier work; remark: listed apart in the source

With COc1cc(C#N)cc(OC)c1-c1csc2c(N(CC3CC3)CC3CCOC3)c(OC)nn12 (stereo not drawn) [Example 14, 4-{7-[(Cyclopropylmethyl)(tetrahydrofuran-3-ylmethyl)amino]-6-methoxypyrazolo[5,1-b][1,3]thiazol-3-yl}-3,5-diimethoxybenzonitrile] the IC50 (human CRFR1) was 90 nM, the “anxiolytic effect in the light/dark box test” value (Balb/c mice) was “statistically significant effects” and the minimal effective dose (Balb/c mice) was 30 mg/kg.
With CCOCc1cc(OC)c(-c2csc3c(N(CC4CCC4)C4CCOCC4)c(OC)nn23)c(OC)c1 [Example 4, N-(Cyclobutylmethyl)-3-[4-(ethoxymethyl)-2,6-dimethoxyphenyl]-6-methoxy-N-(tetrahydro-2H-pyran-4-yl)pyrazolo[5,1-b][1,3]thiazole-7-amine] the IC50 (human CRFR1) was 34 nM, the “anxiolytic effect in the light/dark box test” value (Balb/c mice) was “statistically significant effects” and the minimal effective dose (Balb/c mice) was 30 mg/kg.
COCc1cc(OC)c(-c2csc3c(N(CC4CCC4)C4CCOCC4)c(OC)nn23)c(OC)c1 [Example 7, N-(Cyclobutylmethyl)-3-[2,6-dimethoxy-4-(methoxymethyl)phenyl]-6-methoxy-N-(tetrahydro-2H-pyran-4-yl)pyrazolo[5,1-b][1,3]thiazole-7-amine] showed an IC50 (human CRFR1) of 46 nM.
Work on CCCN(c1c(OC)nn2c(-c3c(OC)cc(COCC)cc3OC)csc12)C1CCCOC1 (stereo not drawn) [Example 6, 3-[4-(Ethoxymethyl)-2,6-dimethoxyphenyl]-6-methoxy-N-propyl-N-(tetrahydro-2H-pyran-3-yl)pyrazolo[5,1-b][1,3]thiazole-7-amine] yielded an IC50 (human CRFR1) of 39 nM.
With CCOCc1cc(OC)c(-c2csc3c(N(CCC4CC4)C4CCOCC4)c(OC)nn23)c(OC)c1 [Example 3, N-(2-Cyclopropylethyl)-3-[4-(ethoxymethyl)-2,6-dimethoxyphenyl]-6-methoxy-N-(tetrahydro-2H-pyran-4-yl)pyrazolo[5,1-b][1,3]thiazole-7-amine] the IC50 (human CRFR1) was 65 nM, the “anxiolytic effect in the light/dark box test” value (Balb/c mice) was “statistically significant effects” and the minimal effective dose (Balb/c mice) was 30 mg/kg.
Compound CCCN(c1c(OC)nn2c(-c3c(OC)cc(COC4CCC4)cc3OC)csc12)C1CCOCC1 [Example 17, 3-{4-[(Cyclobutyloxy)methyl]-2,6-dimethoxyphenyl}-6-methoxy-N-propyl-N-(tetrahydro-2H-pyran-4-yl)pyrazolo[5,1-b][1,3]thiazole-7-amine] has an IC50 (human CRFR1) of 36 nM.
With COCc1cc(OC)c(-c2csc3c(N(CC4CC4)C4CCCOC4)c(OC)nn23)c(OC)c1 (stereo not drawn) [Example 11, N-(Cyclopropylmethyl)-3-[2,6-dimethoxy-4-(methoxymethyl)phenyl]-6-methoxy-N-(tetrahydro-2H-pyran-3-yl)pyrazolo[5,1-b][1,3]thiazole-7-amine] the IC50 (human CRFR1) was 37 nM.
Compound COc1cc(C#N)cc(OC)c1-c1csc2c(N(CC3CCOCC3)CC3CC3)c(OC)nn12 [Example 15, 4-{7-[(Cyclopropylmethyl)(tetrahydro-2H-pyran-4-ylmethyl)amino]-6-methoxypyrazolo[5,1-b][1,3]thiazol-3-yl}-3,5-dimethoxybenzonitrile] has an IC50 (human CRFR1) of 70 nM.
Compound CCCCCN(c1c(OC)nn2c(-c3c(OC)cc(COC)cc3OC)csc12)C1CCOCC1 [Example 8, 3-[2,6-Dimethoxy-4-(methoxymethyl)phenyl]-6-methoxy-N-pentyl-N-(tetrahydro-2H-pyran-4-yl)pyrazolo[5,1-b][1,3]thiazole-7-amine] has an IC50 (human CRFR1) of 63 nM.
In the case of CCN(c1nc(C)cc(N2CC=C(c3cccc(F)c3)CC2)n1)c1ccc(C(C)C)cc1SC [CRA1000], the “stress-related reduction in food intake” value [1] is given as “inhibit”.
In the case of COc1cc(OC)c(-c2csc3c(N(CC4CCOCC4)CC4CC4)c(OC)nn23)c(OC)c1 [Example 16, N-(Cyclopropylmethyl)-6-methoxy-N-(tetrahydro-2H-pyran-4-ylmethyl)-3-(2,4,6-trimethoxyphenyl)-pyrazolo[5,1-b][1,3]thiazole-7-amine], the IC50 (human CRFR1) is reported as 29 nM.
With CCOCc1cc(OC)c(-c2csc3c(N(CC4CC4)C4CCCOC4)c(OC)nn23)c(OC)c1 (stereo not drawn) [Example 5, N-(Cyclopropylmethyl)-3-[4-(ethoxymethyl)-2,6-dimethoxyphenyl]-6-methoxy-N-(tetrahydro-2H-pyran-3-yl)pyrazolo[5,1-b][1,3]thiazole-7-amine] the IC50 (human CRFR1) was 29 nM, the “anxiolytic effect in the light/dark box test” value (Balb/c mice) was “statistically significant effects” and the minimal effective dose (Balb/c mice) was 30 mg/kg.
For α-helical CRF(9-41), the “stress-related increase in intracerebral amyloid-β” value [2] is given as “suppresses”, the anxiety behavior (ethanol withdrawal rats) is given as “inhibits” and the “ischemic and excitotoxic encephalopathy” value [3] is given as “inhibits”. The “stress-related reduction in food intake” value [1] was “inhibit”, the “abdominal pain and anxiety” value (IBS patients) was “reduces” and the colon intestinal hyperkinesis (IBS patients) was “inhibits”.
Compound COCc1cc(OC)c(-c2csc3c(N(CC4CC4C)C4CCOCC4)c(OC)nn23)c(OC)c1 (stereo not drawn) [Example 12, 3-[2,6-Dimethoxy-4-(methoxymethyl)phenyl]-6-methoxy-N-[(2-methylcyclopropyl)methyl]-N-(tetrahydro-2H-pyran-4-yl)pyrazolo[5,1-b][1,3]thiazole-7-amine] has an IC50 (human CRFR1) of 82 nM.
In the case of CCCCN(CC)c1nc(C)nc2c1c(C)cn2-c1c(C)cc(C)cc1C [CP-154526], the “recurrence of stress-elicited alcohol-seeking behavior” value (rats [4]) is listed as “inhibits”, the “learning disturbance following acute stress” value [5] is listed as “inhibits” and the “gastric emptying retardation following surgery” value [6] is listed as “ameliorates”. For the same compound, the “recurrence of stress-elicited drug (heroin, cocaine)-seeking behavior” value (rats [7]) was “inhibits”, the “anti-depressant and anti-anxiety actions” value (rats [8]) was “exhibits anti-depressant and anti-anxiety actions” and the “naltrexone-induced morphine withdrawal symptoms” value [9] was “inhibits”.
In the case of CCCN(CCC)c1cc(C)nc2c(-c3cnc(N(C)C)cc3C)c(C)nn12 [Example R121919], the stress-related sleep disorder (high-anxiety rats) is given as “inhibits”, the “ameliorating depression, depressive symptoms, anxiety” value [10] is given as “effective” and the anti-anxiety action (rats [11]) is given as “exhibits an anti-anxiety action”.
